Experimental data: US12257224B2, “Methods of administration for highly water-soluble salts of a short acting phenylalkylamine calcium channel blocker” (Milestone Pharmaceuticals Inc., priority 2021, dated 2025)
Read-outs that look alike come from different tables or passages of the source.

Legend:
PSVT = test: Example 2: Phase 3 study of self-administered 70 mg dose for PSVT in an at-home setting; type: in vivo, human
Protocol: A multi-center, randomized, double-blind, placebo-controlled study to evaluate the efficacy and safety of a 70 mg self-administered dose of compound I in an at-home setting was conducted. […] PSVT episodes were documented by an ambulatory Cardiac Monitoring System (CMS) placed on the chest by the patient or caregiver when symptoms began and were recorded at least 5 hours of continuous electrocardiogram (ECG).
The primary efficacy endpoint was defined as an adjudicated termination of a positively adjudicated episode of PSVT and conversion to sinus rhythm for at least 30 seconds. The primary efficacy endpoint was evaluated using the time to conversion of an episode of PSVT to sinus rhythm after study drug administration as the primary efficacy variable. The study included a screening visit, a test dose randomization visit, follow-up visits, a treatment period, and a final study visit. Before randomization, all patients received a 70 mg test dose of compound I to evaluate tolerability. The test dose administration took place at the study site under medical supervision while the patient was in sinus rhythm (SR). Patients who passed the test dose were randomized in a 2:1 ratio to 70 mg compound I or placebo. During the treatment period, all randomized patients performed a sequence of steps upon self-identifying symptoms of an episode of PSVT, including contacting a telephone coach for assistance on study procedures, applying a CMS on their chest, performing a vagal maneuver (VM), and study drug self-administration.
For administration, the patients placed the applicator of the system into their nose. The subject's held the nasal delivery system between the second and third fingers, with the thumb placed on the actuator. […] The subjects then apply pressure to the actuator, which forces the liquid solution containing the dissolved acetate salt of compound I through the device, causing the solution to be released from the tip of the applicator as a spray. The solution was administered to the patients as two single pump spray dosages in order to deliver 70 mg of compound I to the nasal epithelium.
The presence of an episode of PSVT and termination were evaluated by an independent Adjudication Committee. The Adjudication Committee's evaluations were done using the complete CMS ECG recorded during the patient's PSVT episode.

[1] = Example 7: PK analysis, serum concentration after one vs two 70 mg nasal doses; type: in vivo, human; set-up: serum concentration, Median: unit not given here; conditions: for concentration at 13 min / concentration at 15 min: human, serum, other: nasal
Protocol: The serum concentration of compound I over time from the first administration for the study arm with a single 70 mg dose administration of compound I was compared with the study arm with two 70 mg dose administrations of compound I. The second 70 mg dose of compound I was administered approximately 10 minutes after the first dose.

[2] = one 70 mg nasal dose, Time 10.5
[3] = one 70 mg nasal dose, Time 11.5
[4] = one 70 mg nasal dose, Time 1450
[5] = two 70 mg nasal doses, second approximately 10 minutes after first, Time 7
[6] = two 70 mg nasal doses, second approximately 10 minutes after first, Time 9
[7] = two 70 mg nasal doses, second approximately 10 minutes after first, Time 10.5
[8] = two 70 mg nasal doses, second approximately 10 minutes after first, Time 11.5

## COC(=O)c1cccc(CCN(C)CCCC(C#N)(c2ccc(OC)c(OC)c2)C(C)C)c1 (stereo not drawn) [compound I, methyl 3-(2-((4-cyano-4-(3,4-dimethoxyphenyl)-5-methylhexyl)(methyl)amino)ethyl)benzoate]
PSVT; 70 mg
  incidences of severe adverse events or adverse events of interest vs placebo: no significant differences
  median time to conversion: 25 min
  most common adverse events: local to the nose, including nasal irritation and congestion
  patients converted to SR within 30 minutes after study drug administration: 54%
PSVT; 70 mg vs placebo, secondary endpoint
  patient reported treatment satisfaction (TSQM-9): nominal statistically significant improvements in favor of compound I over placebo
PSVT; 70 mg, 5-hour observation period
  hazard ratio HR (95% CI), time to conversion of PSVT to SR vs placebo: 1.086 (0.726, 1.623)
PSVT; 70 mg, over 5 hours following treatment, more than 100 patients in PSVT
  safety and tolerability: safe and well tolerated
PSVT; 70 mg, post hoc analysis
  absolute difference in conversion rate vs placebo by 30 minutes: ~19%
[1]; two 70 mg nasal doses, second approximately 10 minutes after first, Time 13, read-out: serum concentration, Max
  concentration at 13 min: 320 ng/mL
[1]; two 70 mg nasal doses, second approximately 10 minutes after first, Time 13, read-out: serum concentration, Mean
  concentration at 13 min: 115 ng/mL
[1]; two 70 mg nasal doses, second approximately 10 minutes after first, Time 13, read-out: serum concentration, Median
  concentration at 13 min: 93.6 ng/mL
[1]; two 70 mg nasal doses, second approximately 10 minutes after first, Time 13, read-out: serum concentration, Min
  concentration at 13 min: 22.5 ng/mL
[1]; two 70 mg nasal doses, second approximately 10 minutes after first, Time 15, read-out: serum concentration, Max
  concentration at 15 min: 317 ng/mL
[1]; two 70 mg nasal doses, second approximately 10 minutes after first, Time 15, read-out: serum concentration, Mean
  concentration at 15 min: 110 ng/mL
[1]; two 70 mg nasal doses, second approximately 10 minutes after first, Time 15, read-out: serum concentration, Median
  concentration at 15 min: 76.9 ng/mL
[1]; two 70 mg nasal doses, second approximately 10 minutes after first, Time 15, read-out: serum concentration, Min
  concentration at 15 min: 25.2 ng/mL
[1]; one 70 mg nasal dose, Time 0
  serum concentration, Max: 0 ng/mL
  serum concentration, Mean: 0.00
  serum concentration, Median: 0.00
  serum concentration, Min: 0.00
[1]; one 70 mg nasal dose, Time 0.5
  serum concentration, Max: 0 ng/mL
  serum concentration, Mean: 0.00
  serum concentration, Median: 0.00
  serum concentration, Min: 0.00
[1]; one 70 mg nasal dose, Time 1.5
  serum concentration, Mean: 11.79
  serum concentration, Median: 5.20
  serum concentration, Min: 0.00
[1]; one 70 mg nasal dose, Time 1.5, in ng/mL
  serum concentration, Max: 56.12
[1]; one 70 mg nasal dose, Time 3
  serum concentration, Mean: 62.82
  serum concentration, Median: 32.60
  serum concentration, Min: 11.45
[1]; one 70 mg nasal dose, Time 3, in ng/mL
  serum concentration, Max: 205.27
[1]; one 70 mg nasal dose, Time 5
  serum concentration, Mean: 90.64
  serum concentration, Median: 67.70
  serum concentration, Min: 21.18
[1]; one 70 mg nasal dose, Time 5, in ng/mL
  serum concentration, Max: 191.63
[1]; one 70 mg nasal dose, Time 7
  serum concentration, Mean: 83.04
  serum concentration, Median: 74.22
  serum concentration, Min: 28.61
[1]; one 70 mg nasal dose, Time 7, in ng/mL
  serum concentration, Max: 152.59
[1]; one 70 mg nasal dose, Time 9
  serum concentration, Mean: 73.39
  serum concentration, Median: 69.68
  serum concentration, Min: 25.94
[1]; one 70 mg nasal dose, Time 9, in ng/mL
  serum concentration, Max: 130.50
[1]; [2]
  serum concentration, Mean: 67.95
  serum concentration, Median: 59.91
  serum concentration, Min: 30.24
[1]; one 70 mg nasal dose, Time 10.5, in ng/mL
  serum concentration, Max: 121.45
[1]; [3]
  serum concentration, Mean: 66.91
  serum concentration, Median: 59.09
  serum concentration, Min: 31.61
[1]; one 70 mg nasal dose, Time 11.5, in ng/mL
  serum concentration, Max: 119.67
[1]; one 70 mg nasal dose, Time 13
  serum concentration, Mean: 62.34
  serum concentration, Median: 59.07
  serum concentration, Min: 29.29
[1]; one 70 mg nasal dose, Time 13, in ng/mL
  serum concentration, Max: 103.40
[1]; one 70 mg nasal dose, Time 15
  serum concentration, Mean: 57.44
  serum concentration, Median: 52.11
  serum concentration, Min: 26.98
[1]; one 70 mg nasal dose, Time 15, in ng/mL
  serum concentration, Max: 111.44
[1]; one 70 mg nasal dose, Time 17
  serum concentration, Mean: 50.32
  serum concentration, Median: 41.80
  serum concentration, Min: 26.92
[1]; one 70 mg nasal dose, Time 17, in ng/mL
  serum concentration, Max: 90.05
[1]; one 70 mg nasal dose, Time 20
  serum concentration, Mean: 49.43
  serum concentration, Median: 46.51
  serum concentration, Min: 22.74
[1]; one 70 mg nasal dose, Time 20, in ng/mL
  serum concentration, Max: 80.55
[1]; one 70 mg nasal dose, Time 25
  serum concentration, Mean: 41.86
  serum concentration, Median: 42.30
  serum concentration, Min: 19.26
[1]; one 70 mg nasal dose, Time 25, in ng/mL
  serum concentration, Max: 66.12
[1]; one 70 mg nasal dose, Time 35
  serum concentration, Mean: 33.35
  serum concentration, Median: 36.90
  serum concentration, Min: 15.09
[1]; one 70 mg nasal dose, Time 35, in ng/mL
  serum concentration, Max: 51.52
[1]; one 70 mg nasal dose, Time 60
  serum concentration, Mean: 20.41
  serum concentration, Median: 22.06
  serum concentration, Min: 8.89
[1]; one 70 mg nasal dose, Time 60, in ng/mL
  serum concentration, Max: 31.10
[1]; one 70 mg nasal dose, Time 100
  serum concentration, Mean: 13.91
  serum concentration, Median: 12.75
  serum concentration, Min: 6.20
[1]; one 70 mg nasal dose, Time 100, in ng/mL
  serum concentration, Max: 23.24
[1]; one 70 mg nasal dose, Time 240
  serum concentration, Mean: 5.90
  serum concentration, Median: 5.91
  serum concentration, Min: 1.48
[1]; one 70 mg nasal dose, Time 240, in ng/mL
  serum concentration, Max: 11.01
[1]; one 70 mg nasal dose, Time 370
  serum concentration, Max: 6.08 ng/mL
  serum concentration, Mean: 2.49
  serum concentration, Median: 2.51
  serum concentration, Min: 0.00
[1]; one 70 mg nasal dose, Time 730
  serum concentration, Max: 3.17 ng/mL
  serum concentration, Mean: 0.76
  serum concentration, Median: 0.00
  serum concentration, Min: 0.00
[1]; [4]
  serum concentration, Max: 1.2 ng/mL
  serum concentration, Mean: 0.10
  serum concentration, Median: 0.00
  serum concentration, Min: 0.00
[1]; second dose approximately 10 minutes after the first
  serum concentration, two 70 mg doses vs single 70 mg dose: raised the serum concentration of compound I above that observed with a single 70 mg dose
[1]; [5]
  serum concentration, Mean: 85.77
  serum concentration, Median: 91.42
  serum concentration, Min: 17.16
[1]; two 70 mg nasal doses, second approximately 10 minutes after first, Time 7, in ng/mL
  serum concentration, Max: 180.76
[1]; [6]
  serum concentration, Mean: 73.20
  serum concentration, Median: 77.41
  serum concentration, Min: 15.37
[1]; two 70 mg nasal doses, second approximately 10 minutes after first, Time 9, in ng/mL
  serum concentration, Max: 144.91
[1]; [7]
  serum concentration, Mean: 65.97
  serum concentration, Median: 65.18
  serum concentration, Min: 14.49
[1]; two 70 mg nasal doses, second approximately 10 minutes after first, Time 10.5, in ng/mL
  serum concentration, Max: 143.87
[1]; [8]
  serum concentration, Mean: 96.77
  serum concentration, Median: 102.11
  serum concentration, Min: 15.52
[1]; two 70 mg nasal doses, second approximately 10 minutes after first, Time 11.5, in ng/mL
  serum concentration, Max: 215.35
